From patent publication US20080234262A1 (Wyeth, priority 2007, published 2008)

What was measured:
[1] = test system: prostate line LNCap; assay: In vitro cell culture growth assay (MTS), LNCap; format: cell-based, human; conditions: LNCap cells, three days after drug treatment;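 note: viable cell density read by absorbance at 490 nm, growth expressed as percent of vehicle-treated cells on the same plate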
[2] = biological target: PI3K (Homo sapiens, UniProt P42336); assay: Fluorescence polarization assay for PI3K; format: biochemical; conditions: PI3Kα; read-out: PI3Kα IC50;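 note: PI3K kinase reaction on PIP2 with ATP, 30-60 min, product sensed by GST-GRP with red probe in fluorescence polarization (mP), controls without enzyme and at zero time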
Sequence of PI3K (P42336 whole entry): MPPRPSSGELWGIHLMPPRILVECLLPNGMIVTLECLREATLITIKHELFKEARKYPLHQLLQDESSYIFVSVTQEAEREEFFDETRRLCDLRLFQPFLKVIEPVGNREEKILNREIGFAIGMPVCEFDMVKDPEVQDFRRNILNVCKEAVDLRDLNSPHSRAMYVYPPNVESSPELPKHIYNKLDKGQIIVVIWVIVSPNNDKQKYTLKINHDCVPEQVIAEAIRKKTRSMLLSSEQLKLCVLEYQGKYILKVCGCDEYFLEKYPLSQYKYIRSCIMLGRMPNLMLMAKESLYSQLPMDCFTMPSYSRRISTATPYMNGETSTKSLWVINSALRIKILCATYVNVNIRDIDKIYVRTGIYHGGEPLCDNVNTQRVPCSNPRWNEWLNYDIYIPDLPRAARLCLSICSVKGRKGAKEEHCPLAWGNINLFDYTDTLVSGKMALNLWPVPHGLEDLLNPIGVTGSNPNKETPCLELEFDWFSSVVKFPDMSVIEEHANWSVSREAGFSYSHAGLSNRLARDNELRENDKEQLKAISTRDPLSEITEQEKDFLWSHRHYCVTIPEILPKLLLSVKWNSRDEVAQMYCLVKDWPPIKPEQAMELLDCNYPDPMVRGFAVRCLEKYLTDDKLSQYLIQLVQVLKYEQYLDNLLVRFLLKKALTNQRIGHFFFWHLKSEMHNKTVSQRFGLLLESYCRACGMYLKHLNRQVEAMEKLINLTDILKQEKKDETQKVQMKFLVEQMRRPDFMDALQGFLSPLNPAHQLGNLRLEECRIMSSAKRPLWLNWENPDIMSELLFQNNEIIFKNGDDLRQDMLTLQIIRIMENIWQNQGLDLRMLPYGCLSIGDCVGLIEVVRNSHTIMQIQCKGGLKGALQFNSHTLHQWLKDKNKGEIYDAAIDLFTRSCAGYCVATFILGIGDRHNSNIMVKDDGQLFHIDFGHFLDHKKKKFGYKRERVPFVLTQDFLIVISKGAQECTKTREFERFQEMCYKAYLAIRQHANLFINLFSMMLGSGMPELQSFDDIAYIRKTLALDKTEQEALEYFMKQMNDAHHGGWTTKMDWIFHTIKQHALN
Sequence of PI3K (P27986 whole entry partner): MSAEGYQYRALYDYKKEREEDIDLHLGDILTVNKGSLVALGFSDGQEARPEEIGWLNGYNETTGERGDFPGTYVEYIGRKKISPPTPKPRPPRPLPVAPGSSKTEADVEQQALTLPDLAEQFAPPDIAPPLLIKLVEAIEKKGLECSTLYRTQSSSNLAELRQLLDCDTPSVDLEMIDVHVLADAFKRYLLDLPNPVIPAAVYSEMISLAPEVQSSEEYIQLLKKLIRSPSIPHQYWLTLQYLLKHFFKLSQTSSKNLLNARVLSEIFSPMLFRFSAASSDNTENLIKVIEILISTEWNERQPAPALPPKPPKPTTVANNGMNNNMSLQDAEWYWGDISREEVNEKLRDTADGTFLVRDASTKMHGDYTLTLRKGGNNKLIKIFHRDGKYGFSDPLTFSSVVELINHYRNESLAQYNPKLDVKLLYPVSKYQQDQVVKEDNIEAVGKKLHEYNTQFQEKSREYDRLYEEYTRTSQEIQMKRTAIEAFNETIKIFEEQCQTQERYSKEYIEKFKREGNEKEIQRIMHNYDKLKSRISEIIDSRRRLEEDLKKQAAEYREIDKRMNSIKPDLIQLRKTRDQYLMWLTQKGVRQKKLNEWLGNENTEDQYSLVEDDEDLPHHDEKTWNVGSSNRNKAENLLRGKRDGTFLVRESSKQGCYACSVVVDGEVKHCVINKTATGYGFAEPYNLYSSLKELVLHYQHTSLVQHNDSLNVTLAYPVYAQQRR

[3] = test system: breast line MDA468; assay: In vitro cell culture growth assay (MTS), MDA468; format: cell-based, human; conditions: MDA468 cells, three days after drug treatment
In short: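 Steps: plate cells; add inhibitors the next day; incubate 3 days; add MTS dye, which viable cells convert metabolically; measure absorbance at 490 nm; calculate percent of control growth relative to vehicle-treated cells in the same plate.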

| Molecule | IC50 ([1]; Homo sapiens, LNCaP, 72 h) | IC50 [2] | IC50 ([3]; Homo sapiens, 72 h) | IC50 [1] | IC50 [3] |
| --- | --- | --- | --- | --- | --- |
| C=CC(=O)Nc1ccc(-c2nc(N3CCOCC3)c3cnn(C4CCN(C(=O)C(C)C)CC4)c3n2)cc1 [Compound 947, N-{4-[1-(1-isobutyrylpiperidin-4-yl)-4-morpholin-4-yl-1H-pyrazolo[3,4-d]pyrimidin-6-yl]phenyl}acrylamide] | 980 nM | 1600 nM | 4800 nM |  |  |
| O=C(Nc1ccncc1)Nc1ccc(-c2nc(N3CCOCC3)c3cnn(C4CCN(Cc5cccnc5)CC4)c3n2)cc1 [Compound 587, 1-(4-{4-morpholin-4-yl-1-[1-(pyridin-3-ylmethyl)piperidin-4-yl]-1H-pyrazolo[3,4-d]pyrimidin-6-yl}phenyl)-3-pyridin-4-ylurea] | 28 nM | 12 nM | 120 nM |  |  |
| c1ccc(CN2CCC(n3ncc4c(N5CCOCC5)nc(-c5cccc6[nH]ccc56)nc43)CC2)cc1 [Example 59] | 500 nM | 239 nM | 2600 nM |  |  |
| 1-(4-{1-[1-(methoxymethyl)piperidin-4-yl]-4-morpholin-4-yl-1H-pyrazolo[3,4-d]pyrimidin-6-yl}phenyl)-3-methylurea [Compound 796] |  | 1560 nM |  | 22000 nM | 30000 nM |
| C=CC(=O)Nc1ccc(-c2nc(N3CCOCC3)c3cn[nH]c3n2)cc1 [Compound 280, N-[4-(4-morpholin-4-yl-1H-pyrazolo[3,4-d]pyrimidin-6-yl)phenyl]acrylamide] | 3400 nM | 601 nM | 7000 nM |  |  |
| NC(=O)CN1CCC(n2ncc3c(N4CCOCC4)nc(-c4ccc5[nH]ccc5c4)nc32)CC1 [Compound 245, 2-{4-[6-(1H-indol-5-yl)-4-morpholin-4-yl-1H-pyrazolo[3,4-d]pyrimidin-1-yl]piperidin-1-yl}acetamide] | 800 nM | 2660 nM | 2800 nM |  |  |
| CCCOC(=O)N1CCC(n2ncc3c(N4CCOCC4)nc(-c4ccc(NC(=O)Nc5ccncc5)cc4)nc32)CC1 [Compound 851, propyl 4-(4-morpholin-4-yl-6-{4-[(pyridin-4-ylcarbamoyl)amino]phenyl}-1H-pyrazolo[3,4-d]pyrimidin-1-yl)piperidine-1-carboxylate] | < 27 nM | 22 nM | 110 nM |  |  |
| CN(C)CCCn1ncc2c(N3CCOCC3)nc(-c3cccc(O)c3)nc21 [Compound 163] | 1500 nM | 60 nM | 6000 nM |  |  |
| CC(C)OC(=O)N1CCC(n2ncc3c(N4CCOCC4)nc(-c4ccc(NC(=O)NCCO)cc4)nc32)CC1 [Compound 834, isopropyl 4-[6-(4-{[(2-hydroxyethyl)carbamoyl]amino}phenyl)-4-morpholin-4-yl-1H-pyrazolo[3,4-d]pyrimidin-1-yl]piperidine-1-carboxylate] | 220 nM | 450 nM | 180 nM |  |  |
| CNC(=O)Nc1ccc(-c2nc(N3CCOCC3)c3cnn(C4CCN(Cc5cccc(Cl)c5)CC4)c3n2)cc1 [Example 395, 1-(4-{1-[1-(3-chlorobenzyl)piperidin-4-yl]-4-morpholin-4-yl-1H-pyrazolo[3,4-d]pyrimidin-6-yl}phenyl)-3-methylurea] | 100 nM | 42 nM | 500 nM |  |  |
| CNC(=O)Nc1ccc(-c2nc(N3CCOCC3)c3cnn(C4CCN(C(=O)N(C)C)CC4)c3n2)cc1 [Compound 717, N,N-dimethyl-4-(6-{4-[(methylcarbamoyl)amino]phenyl}-4-morpholin-4-yl-1H-pyrazolo[3,4-d]pyrimidin-1-yl)piperidine-1-carboxamide] |  | 209 nM |  | 200 nM | 480 nM |
| NNC(=O)Nc1ccc(-c2nc(N3CCOCC3)c3cnn(C4CCN(Cc5ccccc5)CC4)c3n2)cc1 [Compound 554, N-{4-[1-(1-benzylpiperidin-4-yl)-4-morpholin-4-yl-1H-pyrazolo[3,4-d]pyrimidin-6-yl]phenyl}hydrazinecarboxamide] | 900 nM | 155 nM | 7500 nM |  |  |
| Clc1ccc(-c2nc(N3CCOCC3)c3cnn(C4CCN(Cc5ccccc5)CC4)c3n2)cn1 [Compound 156] | 3300 nM | 450 nM | 35000 nM |  |  |
| CCNC(=O)Nc1ccc(-c2nc(N3CCOCC3)c3cnn(C4CCN(C(=O)c5ccccc5)CC4)c3n2)cc1 [Compound 626, 1-{4-[1-(1-benzoylpiperidin-4-yl)-4-morpholin-4-yl-1H-pyrazolo[3,4-d]pyrimidin-6-yl]phenyl}-3-ethylurea] |  | 355 nM | 38 nM | < 27 nM |  |
| c1ccc(CN2CCC(n3ncc4c(N5CCOCC5)nc(-c5ccc6[nH]ccc6c5)nc43)CC2)cc1 [Example 45] | 1400 nM | 1010 nM | 1900 nM |  |  |
| c1cc2cc(-c3nc(N4CCOCC4)c4cnn(C5CCC(N6CCCC6)CC5)c4n3)ccc2[nH]1 (stereo not drawn) [Compound 151] | 520 nM | 1270 nM | 2300 nM |  |  |
| CNC(=O)Nc1ccc(-c2nc(N3CCOCC3)c3cnn(C4CCN(C(=O)c5ccc(F)cc5)CC4)c3n2)cc1 [Compound 607, 1-(4-{1-[1-(4-fluorobenzoyl)piperidin-4-yl]-4-morpholin-4-yl-1H-pyrazolo[3,4-d]pyrimidin-6-yl}phenyl)-3-methylurea] | 27 nM | 108 nM | 90 nM |  |  |
| O=C(Nc1ccc(-c2nc(N3CCOCC3)c3cnn(C4CCN(C(=O)c5cccnc5)CC4)c3n2)cc1)Nc1ccsc1 [Compound 658, 1-(4-{4-morpholin-4-yl-1-[1-(pyridin-3-ylcarbonyl)piperidin-4-yl]-1H-pyrazolo[3,4-d]pyrimidin-6-yl}phenyl)-3-(3-thienyl)urea] |  | 18 nM |  | 40 nM | 75 nM |
| O=C(NO)Nc1ccc(-c2nc(N3CCOCC3)c3cnn(-c4ccccc4)c3n2)cc1 [Example 293, 1-hydroxy-3-[4-(4-morpholin-4-yl-1-phenyl-1H-pyrazolo[3,4-d]pyrimidin-6-yl)phenyl]urea] | 480 nM | 211 nM | 1100 nM |  |  |
| CCCCNC(=O)Nc1ccc(-c2nc(N3CCOCC3)c3cnn(C4CCN(Cc5cccnc5)CC4)c3n2)cc1 [Example 212, 1-Butyl-3-(4-{4-morpholin-4-yl-1-[1-(pyridin-3-ylmethyl)piperidin-4-yl]-1H-pyrazolo[3,4-d]pyrimidin-6-yl}phenyl)urea] | 370 nM | 106 nM | 1400 nM |  |  |
| COC(=O)N1CCC(n2ncc3c(N4CCOCC4)nc(-c4ccc(NC(=O)OCC(F)(F)F)cc4)nc32)CC1 [Compound 908, methyl 4-[4-morpholin-4-yl-6-(4-{[(2,2,2-trifluoroethoxy)carbonyl]amino}phenyl)-1H-pyrazolo[3,4-d]pyrimidin-1-yl]piperidine-1-carboxylate] | 1300 nM | > 10000 nM | 17000 nM |  |  |
| CNC(=O)Nc1ccc(-c2nc(N3CCOCC3)c3cnn(C4CCN(C(=O)c5cccnc5)CC4)c3n2)cn1 [Compound 480, 1-methyl-3-(5-{4-morpholin-4-yl-1-[1-(pyridin-3-ylcarbonyl)piperidin-4-yl]-1H-pyrazolo[3,4-d]pyrimidin-6-yl}pyridin-2-yl)urea] | 800 nM | 42 nM | 1200 nM |  |  |
| c1cc2cc(-c3nc(N4CCOCC4)c4cn[nH]c4n3)ccc2[nH]1 [Compound 248, 6-(1H-indol-5-yl)-4-morpholin-4-yl-1H-pyrazolo[3,4-d]pyrimidine] | 3500 nM | 939 nM | 9000 nM |  |  |
| CNC(=O)Nc1ccc(-c2nc(N3CCOCC3)c3cnn(C4CCN(C(C)=O)CC4)c3n2)cc1 [Example 472, 1-{4-[1-(1-acetylpiperidin-4-yl)-4-morpholin-4-yl-1H-pyrazolo[3,4-d]pyrimidin-6-yl]phenyl}-3-methylurea] | 800 nM | 225 nM | 1200 nM |  |  |
| CCNC(=O)Nc1ccc(-c2nc(N3CCOCC3)c3cnn(C4CCN(CCCCO)CC4)c3n2)cc1 [Compound 745, 1-ethyl-3-(4-{1-[1-(4-hydroxybutyl)piperidin-4-yl]-4-morpholin-4-yl-1H-pyrazolo[3,4-d]pyrimidin-6-yl}phenyl)urea] | 1300 nM | 550 nM | 2900 nM |  |  |
| O=C(NCCO)Nc1ccc(-c2nc(N3CCOCC3)c3cnn(C4CCN(C(=O)c5cccnc5)CC4)c3n2)cc1 [Compound 549, 1-(2-hydroxyethyl)-3-(4-{4-morpholin-4-yl-1-[1-(pyridin-3-ylcarbonyl)piperidin-4-yl]-1H-pyrazolo[3,4-d]pyrimidin-6-yl}phenyl)urea] | 7500 nM | 220 nM | 9000 nM |  |  |
| CC(c1ccccc1)N1CCC(n2ncc3c(N4CCOCC4)nc(-c4ccc5[nH]ccc5c4)nc32)CC1 (stereo not drawn) [Compound 490, 6-(1H-indol-5-yl)-4-morpholin-4-yl-1-[1-(1-phenylethyl)piperidin-4-yl]-1H-pyrazolo[3,4-d]pyrimidine] | 3800 nM | 2670 nM | 3500 nM |  |  |
| O=C1CCC(n2ncc3c(N4CCOCC4)nc(-c4ccc5[nH]ccc5c4)nc32)CC1 [Compound 143, 4-[6-(1H-indol-5-yl)-4-morpholin-4-yl-1H-pyrazolo[3,4-d]pyrimidin-1-yl]cyclohexanone] | 180 nM | 703 nM | 1700 nM |  |  |
| CC(C)C(=O)N1CCC(n2ncc3c(N4CCOCC4)nc(-c4ccc(NC(=O)NCCO)cc4)nc32)CC1 [Compound 823, 1-(2-hydroxyethyl)-3-{4-[1-(1-isobutyrylpiperidin-4-yl)-4-morpholin-4-yl-1H-pyrazolo[3,4-d]pyrimidin-6-yl]phenyl}urea] | 3500 nM | 571 nM | 320 nM |  |  |
| CC(=O)Nc1ccc(-c2nc(N3CCOCC3)c3cn[nH]c3n2)cc1 [Compound 926, N-[4-(4-morpholin-4-yl-1H-pyrazolo[3,4-d]pyrimidin-6-yl)phenyl]acetamide] |  | 442 nM |  | 3700 nM | 8500 nM |
